Measured values published in patent publication US10717981B2, “Therapeutic compositions and methods of making and using the same” (Advanced ReGen Medical Technologies, LLC, priority 2018, dated 2020).

How the values were obtained:
aged cells = assay: Clonogenic assay (CFU-GM) of aged cells after miRNA mimic, siRNA or exosome treatment; type: cell-based, human; conditions: overexpression of candidate miRNAs in aged isochronic cultures, vs negative control RNA
Text: Aged TNCs (10×10^6 cells per sample) were nucleofected with microRNA mimics (Qiagen), miRNA inhibitors (Qiagen), negative control siRNA (Qiagen), negative control miRNA inhibitor (Qiagen) or downstream target candidate siRNAs (Origene) using the Amaxa P3 Primary Cell 4D-Nucleofector X Kit (Lonza) on a 4D Nucleofector device (Lonza), according to manufacturer's specific protocol. Briefly, for nucleofection of CD34+ cells used in clonogenic assays, cells were nucleofected with 60 nmol total miRNA mimics, miRNA inhibitors or siRNA using the “human CD34+ cell” program. For nucleofection of T cells used in T cell activation and cell-mediated cytotoxicity assays, cells were nucleofected with 240 nmol total miRNA mimics, miRNA inhibitors or siRNA using the “human unstimulated T cell, high functionality” program.

huNSG mice = tested on: huNSG mice
Experimental: T cell activation was determined using the T Cell Activation/Expansion Kit (Miltenyi). Briefly, anti-biotin MACSiBead Particles were loaded with CD2, CD3, and CD28 antibodies. Cells from 7-day isochronic or heterochronic cultures, or MNCs isolated from huNSG mouse blood by Ficoll-Hypaque density gradient, were incubated with loaded anti-biotin MACSiBead Particles at a 1:2 bead to cell ratio for 72 h to activate T cells. Addition of unloaded MACSiBead Particles served as negative control. After 72 h, cells were fluorescently labeled using CD45-FITC, CD4-PE, CD25-PerCP-Cy5.5 and CD8-APC to determine T cell activation status by flow cytometry.
5-week old, female NOD/scid IL2Rγnull (NSG) mice were purchased from Jackson Labs and housed in an AALAC-accredited facility at Rutgers, N.J. Medical School (Newark, N.J.). The protocol was approved by the Institutional Animal Care and Use Committee, Rutgers School of Biomedical Health Sciences (Newark, N.J.). Mice were acclimated in the Rutgers barrier animal facility for 1 week prior to experimental use. 6-week old mice were subjected to 150 cGy whole body gamma irradiation using a Mark-I cesium irradiator unit. 5 hours post-irradiation, mice were injected i.v. with 5×10^5 human CD34+ cells isolated from aged or young study donor Leukopaks. Engraftment proceeded over 15-19 weeks, with peripheral blood chimerism monitored at 9 and 13 weeks post-transplant. % Chimerism was detected by co-labeling blood with anti-human CD45-APC (HI30) and anti-mouse CD45-FITC (30-F11) for monitoring by flow cytometry. Humanized NSG (huNSG) enrolled in the treatment arm of the transwell-based animal study were given a 2nd i.v. injection of 5×10^5 autologous aged cells from 7-day isochronic (non-restored) or heterochronic (restored) cultures that were CD3-depleted (Miltenyi) prior to transplant, or saline control. The miRNA-based animal study was performed as above, except that the treatment arm utilized autologous aged cells transfected with 60 nmol total of either miR-619 alone, miR-combo (miR-619, -1303, 4497) or control RNA. Transfections utilized the HiPerFect reagent (Qiagen), and cells were transfected for a total of 7 days prior to CD3 depletion and i.v. injection as above. Mice were sacrificed at 14-15 weeks post-transplant, and blood, BM and speen harvested for biochemical, phenotypic and functional analyses. Major organs were also harvested for histological assessment. Tissue embedding, processing and staining were performed by the Digital Imaging and Histology Core of Rutgers-New Jersey Medical School Cancer Center (Newark, N.J.). Histologic findings were confirmed on H&E slides by a board-certified veterinary pathologist.
Detection of senescence associated secretory factors (SASFs) in plasma of huNSG mice was performed using Custom C-Series Human Antibody Arrays (Ray Biotech). Arrays were labeled with antibodies to 68 different factors linked to cellular senescence. Briefly, blood from huNSG mice was pelleted for 10 min at 300 g and plasma supernatant collected in siliconized microfuge tubes for SASF determination. […] Background levels were calculated by incubating the arrays with plasma from non-humanized NSG mice and then subtracting the obtained values from each huNSG sample.
For the T Cell Cytokine Array (Ray Biotech), conditioned media was collected from cells isolated from huNSG peripheral blood that were stimulated as per the T cell activation assay (see above) after 72 h and stored in protein lo-bind tubes. […] For both the custom SASF and T cell cytokine arrays, densitometry was performed using the UN-SCAN-IT densitometry software (Silk Scientific). Hierarchical clustering and heat map generation were perfomed with Heatmapper software.
BM from huNSG were flushed with a 26-gauge needle and collected for subsequent purification of engrafted human cells with the Mouse Cell Depletion Kit (Miltenyi).

K562 = assay: Cell-mediated cytotoxicity assay, aged effector cells; type: cell-based; conditions: miRNA formulations in aged cells, vs control RNA
Experimental: Cell cytotoxicity was determined with the CFSE/7-AAD Cell Cytotoxicity Kit (Cayman Chemical) according to manufacturer's specified instructions. Briefly, the human chronic myelogenous leukemia cell line, K562, (ATCC # CCL-243) was used as target cells. 107 K562 cells were labeled for 15 min with CFSE dye, washed twice and diluted 100-fold for 30 min incubation at 37° C. Cells from 7-day isochronic or heterochronic cultures were used as effectors. Effector and target cells were added to 6-well plates at the following effector-to-target (E:T) ratios: 0:1, 6.25:1, 12.5:1 and 25:1, and cell mixtures incubated for 4 h at 37° C. Cells were harvested and counter-stained with 7-AAD. 50,000 events were acquired on the FACSCalibur flow cytometer, and data analyzed using BD CellQuest Pro™ software. Target cells incubated alone with 7-AAD served as control to calculate spontaneous lysis, while effector cells alone with 7-AAD served as control to detect dead effector cells. Percent lysis was calculated according the following formula: [(cells positive for both CFSE and 7-AAD/total CFSE-labeled cells)*100−spontaneous % lysis]. […]

Substance: miR-619: miRNA (miR-619-5p), GCUGGGAUUACAGGCAUGAGCC (chemistry not given here; listed as Homo sapiens)
- aged colony formation (aged cells): significant effect
- SASFs decreased (68 factors linked to the SASP) (huNSG mice; blood plasma, 1.5-fold cutoff, vs control): 51.4%
- total SASF expression (huNSG mice; blood plasma, vs control): significant decreases
- mean overall survival (huNSG mice; mice receiving aged cells treated with miRNA, 15 weeks after 2nd transplant): 89%
- clonogenicity (huNSG mice; normalized to control, compared to heterochronic treatment): more robust
- huCD3+ cells in blood (huNSG mice; vs RNA control): increased
- huCD4+ cells in blood (huNSG mice; vs RNA control): significantly increased
- BM clonogenicity (huNSG mice; vs control): significantly increased
- huCD4+/CD8+ ratio in blood (huNSG mice; vs control): increased
- huCD8+ cells in blood (huNSG mice; vs control): decreased
- human chimerism in BM or blood (huNSG mice; vs control RNA): No significant difference
- target lysis (cell-mediated cytotoxicity) (K562): significant increases
